Here are results for 24 compounds from patent publication US20080119456A1, “Substituted Thiazoleacetic Acid as Crth2 Ligands” (priority 2004, published 2008).

One experiment has as its target T1, human CRTH2-Rluc (Homo sapiens, UniProt Q9Y5Y4, V204A).
T1 construct: expressed in transfected cells
T1 sequence (Q9Y5Y4 1-395 V204A): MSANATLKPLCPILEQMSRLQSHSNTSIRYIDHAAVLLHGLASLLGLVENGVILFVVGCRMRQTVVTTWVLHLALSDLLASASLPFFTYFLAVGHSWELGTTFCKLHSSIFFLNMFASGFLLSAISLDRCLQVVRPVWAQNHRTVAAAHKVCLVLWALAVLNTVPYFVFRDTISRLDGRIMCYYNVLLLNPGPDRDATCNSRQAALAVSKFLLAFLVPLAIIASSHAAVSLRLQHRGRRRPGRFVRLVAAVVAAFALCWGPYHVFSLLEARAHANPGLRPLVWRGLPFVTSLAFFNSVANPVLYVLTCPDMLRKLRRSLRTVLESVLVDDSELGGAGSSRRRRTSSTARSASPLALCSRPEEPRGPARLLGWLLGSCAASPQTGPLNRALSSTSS
As to the kind of experiment: Functional antagonist BRET assay on HEK293 cells stably expressing CRTH2-Rluc and GFP2-β-arr2. In kind it is cell-based. As to conditions: antagonist incubated 15 minutes before agonist, read-out: Antag. IC50. The source says:
(§1) Generation/origin of the cDNA Constructs. The coding sequence of the human CRTH2 receptor (genbank accession no NM_004778) was amplified by PCR from a human hippocampus cDNA library and inserted into the pcDNA3.1(+) expression vector (invitrogen) via 5′ HindIII and 3′ EcoRI. To generate a CRTH2-Renilla luciferase (CRTH2-Rluc) fusion protein, the CRTH2 coding sequence without a STOP codon and Rluc were amplified, fused in frame by PCR and subcloned into the pcDNA3.1(+)Zeo expression vector (invitrogen). Human β-arrestin2 (β-arr2) N-terminally tagged with GFP^2 (βarr2-GFP^2) and Renilla luciferase were purchased from BioSignal Packard Inc, (Montreal, Canada). The sequence identity of the construct was verified by restriction endonuclease digests and sequencing in both directions on an ABI Prism (Applied Biosystems, Foster City, Calif.).
(§2) Cell Culture and Transfection. COS-7 cells were grown in Dulbecco's modified Eagle's medium (DMEM) 1885 supplemented with 10% fetal bovine serum, 100 units/ml penicillin, […] streptomycin, and kept at 37° C. in a 10% CO2 atmosphere. HEK293 cells were maintained in Minimum Essential medium (MEM) supplemented with 10% (v/v) heat inactivated fetal calf serum (HIFCS), 2 mM Glutamax™-I, 1% non essential amino acids (NEAA), 1% sodium pyruvate and 10 μg/ml gentamicin. For binding experiments, COS7 cells were transiently transfected with the CRTH2 receptor using a calcium phosphate-DNA coprecipitation method with the addition of chloroquine (as described by Hoist et al., 2001*). To perform the functional Bioluminescence Resonance Energy Transfer (BRET) assays, a HEK293 cell clone stably expressing βarr2-GFP^2 and CRTH2-Rluc was generated (CRTH2-HEK293 cells).
BRET assay. Functional BRET assays were performed on HEK293 cells stably expressing human CRTH2-Rluc and GFP^2-β-arr2. Prior to their use in the BRET assay cells were detached and re-suspended in D-PBS with 1000 mg/L L-Glucose at a density of 2×10^6 cells/mL. DeepBlueC™ was diluted to 50 μM in D-PBS with 1000 mg/L L-Glucose (light sensitive). 100 μL of cell suspension was transferred to wells in a 96-well microplate (white OptiPlate) and placed in the Mithras LB 940 instrument (BERTHOLD TECHNOLOGIES, Bad Wildbad, Germany). 12 μL/well agonist was then injected by injector 1 and 10 μL/well DeepBlueC™ was injected simultaneously by injector 2. Five seconds after the injections the light output from the well was measured sequentially at 400 nm and 515 nm, and the BRET signal (mBRET ratio) was calculated by the ratio of the fluorescence emitted by GFP^2-β-arr2 (515 nm) over the light emitted by the receptor-Rluc (400 nm). Antagonists were added before placing the microplates into the Mithras LB 940 and allowed to incubate for 15 minutes prior to the addition of agonist and DeepBlueC™. Compounds were dissolved in DMSO and the final DMSO concentration was kept constant at 1% in the assay.
(§3) Curve analysis was performed with the GraphPadPrism software 3.0 (Graphpad Prism Inc., San Diego, USA) and IC50 values were calculated as a measure of the antagonistic potencies.

The next experiment deals with T2, human CRTH2 receptor (Homo sapiens, UniProt Q9Y5Y4, V204A).
T2 construct: expressed in transfected cells; host or cells: COS-7 cells, transient, pcDNA3.1(+)
T2 sequence (Q9Y5Y4 1-395 V204A): T1 sequence (Q9Y5Y4 1-395 V204A)
The experiment can be described thus: Receptor binding assay: [3H]PGD2 competition on whole COS-7 cells transfected with CRTH2. To be noted: 0.1 nM [3H]PGD2, whole cells, 3 h at 4° C.
Source text: as §1, §2
Binding assay. 24 h after transfection COS-7 cells were seeded into 96 well plates at a density of 30.000 cells/well. Competition binding experiments on whole cells were then performed about 18-24 h later using 0.1 nM [^3H]PGD2 (NEN, 172 Ci/mmol) in a binding buffer consisting of HBSS (GIBCO) and 10 mM HEPES. Competing ligands were diluted in DMSO which was kept constant at 1% (v/v) of the final incubation volume. Total and nonspecific binding were determined in the absence and presence of 10 μM PGD2. Binding reactions were routinely conducted for 3 h at 4° C. and terminated by 2 washes (100 μl each) with ice cold binding buffer. Radioactivity was determined by liquid scintillation counting in a TOPCOUNTER (Packard) following over night incubation in Microscint 20. Stable HEK293 cells were seeded at a density of 30.000 cells/well 18-24 h prior to the binding assay which was performed essentially as described for COS7 cells above. Determinations were made in duplicates.
as §3

Regarding `O=C(O)Cc1sc(C(Cc2ccccc2)c2ccc(Cl)cc2)nc1-c1ccc(Cl)cc1` (stereo not drawn) [Compound A9, {4-(4-Chloro-phenyl)-2-[1-(4-chloro-phenyl)-2-phenyl-ethyl]-thiazol-5-yl}-acetic acid], the concentration for half-maximal inhibition (IC50) on human CRTH2-Rluc was 500 to 5000 nM; at human CRTH2 receptor, below 500 nM.
Take `COc1ccc(C(c2ccccc2)c2nc(-c3ccc(F)cc3)c(CC(=O)O)s2)cc1` (stereo not drawn) [Compound A15, {4-(4-Fluoro-phenyl)-2-[(4-methoxy-phenyl)-phenyl-methyl]-thiazol-5-yl}-acetic acid]: the IC50 at human CRTH2-Rluc and at human CRTH2 receptor was below 500 nM throughout.
In turn, `O=C(O)Cc1sc(Cc2ccccc2-c2cccc(OC(F)(F)F)c2)nc1-c1ccc(F)cc1` [Compound A44, [4-(4-Fluoro-phenyl)-2-(3′-trifluoromethoxy-biphenyl-2-ylmethyl)-thiazol-5-yl]-acetic acid] gave an IC50 on human CRTH2 receptor below 500 nM.
On to `O=C(O)Cc1sc(C(c2ccccc2)c2ccccc2)nc1-c1ccc(F)c(F)c1` [Compound A26, [2-Benzhydryl-4-(3,4-difluoro-phenyl)-thiazol-5-yl]-acetic acid], for which the IC50 at human CRTH2-Rluc and on human CRTH2 receptor was below 500 nM in each case.
In the case of `O=C(O)Cc1sc(C(c2ccccc2)c2ccc(O)cc2)nc1-c1ccc(F)cc1` (stereo not drawn) [Compound A22, {4-(4-Fluoro-phenyl)-2-[(4-hydroxy-phenyl)-phenyl-methyl]-thiazol-5-yl}-acetic acid], the half-inhibitory concentration (IC50) at human CRTH2-Rluc and on human CRTH2 receptor was below 500 nM each time.
As for `O=C(O)Cc1sc(C(c2ccccc2)c2ccccc2)nc1-c1cccc(F)c1` [Compound A23, [2-Benzhydryl-4-(3-fluoro-phenyl)-thiazol-5-yl]-acetic acid], the concentration for half-maximal inhibition (IC50) at human CRTH2-Rluc and at human CRTH2 receptor was below 500 nM each time.
For the compound `O=C(O)Cc1sc(Cc2ccccc2Oc2ccccc2)nc1-c1ccc(Cl)cc1` [Compound A35, [4-(4-Chloro-phenyl)-2-(2-phenoxy-benzyl)-thiazol-5-yl]-acetic acid], the half-inhibitory concentration (IC50) at human CRTH2 receptor lay in the range of 500 to 5000 nM.
As for `O=C(O)Cc1sc(C(c2ccccc2)c2ccccc2)nc1-c1ccc(Cl)cc1` [Compound A1, [2-Benzhydryl-4-(4-chloro-phenyl)-thiazol-5-yl]-acetic acid], the IC50 at human CRTH2-Rluc and at human CRTH2 receptor was below 500 nM in each case.
As for `N#Cc1ccc(-c2ccccc2Cc2nc(-c3ccc(F)cc3)c(CC(=O)O)s2)cc1` [Compound A38, [2-(4′-Cyano-biphenyl-2-ylmethyl)-4-(4-fluoro-phenyl)-thiazol-5-yl]-acetic acid], the half-maximal inhibitory concentration (IC50) on human CRTH2-Rluc and at human CRTH2 receptor was below 500 nM each time.
As for `O=C(O)Cc1sc(C(c2ccccc2)c2ccc(F)c(F)c2)nc1-c1ccc(Cl)cc1` (stereo not drawn) [Compound A17, {4-(4-Chloro-phenyl)-2-[(3,4-difluoro-phenyl)-phenyl-methyl]-thiazol-5-yl}-acetic acid], the IC50 at human CRTH2-Rluc was above 5000 nM; at human CRTH2 receptor it was below 500 nM.
As for `COc1ccc(-c2nc(C(c3ccccc3)c3ccccc3)sc2CC(=O)O)cc1` [Compound A12, [2-Benzhydryl-4-(4-methoxy-phenyl)-thiazol-5-yl]-acetic acid], the IC50 on human CRTH2-Rluc is 500 to 5000 nM; on human CRTH2 receptor it was below 500 nM.
Taken in the same sequence, the figures for `O=C(O)Cc1sc(C(c2ccccc2)c2ccc(F)c(F)c2)nc1-c1ccc(F)cc1` (stereo not drawn) [Compound A18, [2-[(3,4-Difluoro-phenyl)-phenyl-methyl]-4-(4-fluoro-phenyl)-thiazol-5-yl]-acetic acid] were below 500 nM and below 500 nM.
Taken in the same sequence, the figures for `O=C(O)Cc1sc(C(c2ccccc2)c2ccccc2)nc1-c1ccccc1` [Compound A11, (2-Benzhydryl-4-phenyl-thiazol-5-yl)-acetic acid] were below 500 nM and 500 to 5000 nM.
The corresponding values for `O=C(O)Cc1sc(C(c2ccccc2)c2ccc(F)cc2)nc1-c1ccc(Cl)cc1` (stereo not drawn) [Compound A13, {4-(4-Chloro-phenyl)-2-[(4-fluoro-phenyl)-phenyl-methyl]-thiazol-5-yl}-acetic acid] are below 500 nM and below 500 nM.
Regarding `O=C(O)Cc1sc(Cc2ccccc2-c2ccccc2)nc1-c1ccc(F)cc1` [Compound A36, [2-Biphenyl-2-ylmethyl-4-(4-fluoro-phenyl)-thiazol-5-yl]-acetic acid], the IC50 at human CRTH2-Rluc and on human CRTH2 receptor was below 500 nM in each case.
On human CRTH2 receptor, `N#Cc1cccc(-c2ccccc2Cc2nc(-c3ccc(F)cc3)c(CC(=O)O)s2)c1` [Compound A43, [2-(3′-Cyano-biphenyl-2-ylmethyl)-4-(4-fluoro-phenyl)-thiazol-5-yl]-acetic acid] had an IC50 below 500 nM.
Turning to `COc1cccc(-c2ccccc2Cc2nc(-c3ccc(F)cc3)c(CC(=O)O)s2)c1` [Compound A37, [4-(4-Fluoro-phenyl)-2-(3′-methoxy-biphenyl-2-ylmethyl)-thiazol-5-yl]-acetic acid], the half-inhibitory concentration (IC50) on human CRTH2-Rluc and at human CRTH2 receptor was below 500 nM throughout.
With `CC(=O)N1CCC(c2ccccc2)(c2nc(-c3ccc(Cl)cc3)c(CC(=O)O)s2)CC1` [Compound A45], the 50% inhibitory concentration (IC50) at human CRTH2-Rluc is 500 to 5000 nM; on human CRTH2 receptor, below 500 nM.
For the compound `CCC(c1ccccc1)c1nc(-c2ccc(Cl)cc2)c(CC(=O)O)s1` (stereo not drawn) [Compound A6, [4-(4-Chloro-phenyl)-2-(1-phenyl-propyl)-thiazol-5-yl]-acetic acid], at human CRTH2 receptor, the IC50 was below 500 nM.
On to `CC(=O)Nc1cccc(-c2ccccc2Cc2nc(-c3ccc(F)cc3)c(CC(=O)O)s2)c1` [Compound A39, [2-(3′-Acetylamino-biphenyl-2-ylmethyl)-4-(4-fluoro-phenyl)-thiazol-5-yl]-acetic acid], for which the IC50 on human CRTH2 receptor is 500 to 5000 nM.
Still for that read-out and setting: next, `O=C(O)Cc1sc(C(c2ccccc2)c2ncccc2Cl)nc1-c1ccc(Cl)cc1` (stereo not drawn) [Compound A29, {4-(4-Chloro-phenyl)-2-[(3-chloro-pyridin-2-yl)-phenyl-methyl]-thiazol-5-yl}-acetic acid]: below 500 nM.
Still for that read-out and setting: next, `COc1ccccc1-c1ccccc1Cc1nc(-c2ccc(F)cc2)c(CC(=O)O)s1` [Compound A41, [4-(4-Fluoro-phenyl)-2-(2′-methoxy-biphenyl-2-ylmethyl)-thiazol-5-yl]-acetic acid]: below 500 nM; `O=C(O)Cc1sc(C(c2ccccc2)C2CCCCC2)nc1-c1ccc(Cl)cc1` (stereo not drawn) [Compound A32, [4-(4-Chloro-phenyl)-2-(cyclohexyl-phenyl-methyl)-thiazol-5-yl]-acetic acid]: 500 to 5000 nM; `COc1ccc(C(c2ccccn2)c2nc(-c3ccc(F)cc3)c(CC(=O)O)s2)cc1` (stereo not drawn) [Compound A30, {4-(4-Fluoro-phenyl)-2-[(4-methoxy-phenyl)-pyridin-2-yl-methyl]-thiazol-5-yl}-acetic acid]: below 500 nM.
